Measured values reported in US20060198882A1, “Stable liposomes or micelles comprising a sphinolipid and a peg-lipopolymer” (priority 2003, published 2006).
Several values for one entry are separate records, joined by “and”; a condition that tells them apart may be missing. Equal entries are not always repeated.

Experiments:
[1] = Injection of ceramide dispersions into mice (tolerance, weight); details: for decrease from initial weight: mouse, in vivo
Procedure: […] of C2Cer and C6Cer dispersions in ethanol or in ethanol:dodecane (98:2) (required final blood concentration of about 3.3%) were injected to the Balb/c female mice (8 week old).
In addition, 1 μmole/mouse of C2Cer and C6Cer dispersions in ethanol or in ethanol:dodecane (98:2) in isotonic BSA solution (BSA 2 mM, NaCl 112 mM, pH 7.4) was injected in order to reach the final ethanol or ethanol:dodecane blood concentration of about 3.3%. For the preparation of ceramide-BSA complexes the 33 μl of 30 mM stock of C2Cer and C6Cer dispersions were incubated for 30 min at 30° C. with 417 μl of 2 mM BSA solution in order to reach the ceramide/BSA mole ratio of 1/0.8, respectively [Hannun, Supra, 2000].

[2] = Partition in the two phases of the Dole system; format: physicochemical; details: for % of lipid in heptane-rich upper phase / % of lipid in isopropanol/water lower phase: Dole two phase system
Procedure: The distribution of the C18 sphingosine-based ceramides with different acyl chain lengths and of DMS between the polar phase and respectively less polar phase (as defined below) of the Dole two phase system was determined. […] The different ceramides included: short (C2 Cer and C4 Cer), medium (C6 Cer and C8 Cer), long (C16 Cer). […] In: Liposome Technology 2nd Edn., G Gregoriadis (Ed.) CRC Press, Boca Raton, 1993, vol. 1, pp: 527-616]. The amount of each of the lipids used in each of the two phases was measured by thin-layer chromatography (TLC). For ceramide quantification TLC was developed in a solvent system containing chloroform/methanol (95:5 v/v). For DMS quantification TLC was developed in a solvent system containing chloroform/methanol/ammonia (89/9/2 v/v). Further, the TLC plate was sprayed with Copper sulfate reagent composed of 100 g anhydrous copper sulfate containing 80 ml of phosphoric acid (85%), %) dissolved in 600 ml of DDW. Copper sulphate reagent was applied to the plates by spraying, then heated and lipids appeared as dark brown spot. […] Quantity of ceramides in each phase was calculated from a standard curve of appropriate ceramide. […] (1993)Supra]. The distribution between the two Dole system phases was determined by the equation (as exemplified for ceramide): [formula] [formula] Where Kp denotes the partition coefficient of a given lipid or amphiphile referred to in the equation as lipid; Cer denotes ceramide; up is an abbreviation for the heptane rich low polarity upper phase and lp is an abbreviation for the polar isopropanol water rich lower phase.

[3] = tested on: C-26 colon carcinoma cells; assay: Cell uptake and metabolism of radiolabelled ceramide assemblies; format: cell-based, human
Procedure: C-26 colon carcinoma cells were seeded into six-well plates at density of 2.5×10^5 in 2 ml of complete RPMI-1640 medium supplemented with 10% FCS, antibiotics, and glutamine. The cells were allowed to grow for 48 hr and replaced with 1 ml of complete serum containing medium. […] The radioactive doses of ceramides and lipid (dpm/μmole) are described in Table 2C. After these predefined time periods cells were tripsinized and washed twice with PBS. Cell lipids, lipids of the medium and lipids of the wash fraction were extracted by the Bligh and Dyer procedure [E. G. Bligh and W. J. Dyer, Can. J. Biochem. Physiol. 37:[…] (1959)]. Briefly, chloroform, methanol, and DDW were added to the cells at a final ratio of 1:2:1 (by vol.), and incubated for 10 min at 45° C. Then the mixtures were centrifuged at […] for 5 min. The supernatants containing the lipids were taken and chloroform and DDW were added in order to reach the final volume ratio of chloroform: methanol:DDW of 1:1:1. Two phases were formed and well separated after centrifugation. The water/methanol rich upper phase was removed while the chloroform-rich lower phase which contains >99% of the lipids was washed once with synthetic upper phase composed of chloroform:methanol:DDW (6:94:96, by volume). The lipid-containing lower phase was dried under nitrogen stream and redissolved in chloroform: methanol (2:1, by vol.) ready for analysis.
The lipid mixture was applied to silica gel TLC plates and developed in the solvent system of chloroform:methanol: DDW (84:16:1,5, by vol.) and detected by Copper sulfate reagent. The TLC plates were photographed by the Fluor-S-Multyimiger (Bio-Rad, Hercules, Calif.). Migration of lipids from cells extracts, medium, and wash fractions was visualized in comparison to a different well established commercial markers. The retention factor RF (defined as the distance traveled by the compound divided by the distance traveled by the solvent) of various molecules are as follows: SPM-0.04, EPC or HSPC-0.1, DOTAP: 0.24, GalCer: 0.29-0.38, GluCer: 0.4, C6 Cer: 0.68, and C16 Cer: […].
The TLC plates were then subjected overnight to imaging plate and the radioactivity was measured by Bio-Imaging analyzer (FUJI BAS 1000, Japan) then the radioactive bands were scraped from the TLC plate, placed into the test tube containing scintillation medium Opti-Fluor (Packard Bioscience, Groningen, Netherlands) and the radioactivity was counted by a β-counter.
The uptake and metabolism of radiolabelled liposomal or free C6Cer were studied in C-26 colon carcinoma cells. Cells were incubated with either free ^14C6Cer (in ethanol) or with liposomal C6Cer. Total lipids were extracted and the level of uptake and metabolites were determined from cells and growth medium as described in Materials and Methods.

[4] = tested on: caspase-3 activity in OV-1063 tumor cells; assay: EnzChek Caspase-3 assay; format: cell-based, human; details: 16 hr, IC50 values
Source text: Biochemically, apoptosis was verified by the EnzChek™ Caspase-3 Assay Kit (Molecular Probes). This allows the detection of apoptosis by assaying for increases in caspase-3 and other DEVD-specific protease activities (e.g., caspase-7). The basis for the assay is rhodamine 110 bis-(N-CBZ-aspartyl-L-glutamyl-L-valyl-aspartic acid amide) referred to as Z-DEVD-R110. This substrate is a bisamide derivative of rhodamine 110 (R110) containing DEVD peptides covalently linked to each of R110's amino groups. Upon enzymatic cleavage, the nonfluorescent bisamide substrate is converted to the fluorescent R110, which was quantified by a fluorescence microplate reader (Tecan) using excitation at 485±10 nm and emission at 535±10 nm. […] The AC-DEVD-inhibitor was used to confirm that the observed fluorescence signal in treated samples is due to the activity of caspase-3 protease. Both induced and control cells were then harvested and lysed. Enzyme reactions were performed in 96-well plates with 50 μg of cytosolic proteins (55 min. of incubation) and a final concentration of 25 μM Z-DEVD-R110 substrate, as described in the kit protocol.

| SMILES | decrease from initial weight [1] | Kp (heptane rich/isopropanol and water rich partition coefficient) [2] | % of lipid in heptane-rich upper phase [2] | % of lipid in isopropanol/water lower phase [2] | Cell uptake (%) of ^14C6Cer ([3]; 2 hr) | Cell uptake (nmole) of ^14C6Cer ([3]; 2 hr, 20 μM ceramide) | Cell uptake (%) of ^14C6Cer ([3]; 24 hr) | Cell uptake (nmole) of ^14C6Cer ([3]; 24 hr) | Cell uptake (%) of ^14C6Cer ([3]; 72 hr) | Cell uptake (nmole) of ^14C6Cer ([3]; 72 hr) | death of mice ([1]; ethanol:dodecane (98:2) dispersions) | increase in caspase-3 activity vs control, untreated cells [4] |
| --- | --- | --- | --- | --- | --- | --- | --- | --- | --- | --- | --- | --- |
| CCCCCCCCCCCCC/C=C/[C@@H](O)[C@H](CO)NC(C)=O [C2Cer, N-Acetyl-D-erythro-sphingosine] | about 5% | 0.54 | 21% and 21.2% | 79% and 78.8% | – | – | – | – | – | – | – | – |
| CCCCCCCCCCCCC/C=C/[C@@H](O)[C@H](CO)NC(=O)CCCCC [C6Cer, N-hexanoyl-D-erythro-sphingosine] | about 5% | 3.17 | 63% and 62.7% | 37.3% | 39.9% | 13.7 nmol | 93.7% | 34.5 nmol | 72% | 24.5 nmol | died during the injection | – |
| CCCCCCCCCCCCC/C=C/[C@@H](O)[C@H](CO)NC(=O)CCCCCCCCCCCCCCC [C16Cer, N-palmitoyl-D-erythro-sphingosine] | – | 8.21 | 89% | 11% | – | – | – | – | – | – | – | no activation |
